# Counter-ions that a name gives are not always drawn.
# Tests used:
# Tetranychus urticae [1] = experiment: Resistance ratio of LC50 for spirodiclofen-resistant Tetranychus urticae SR-VP (two-spotted spider mite) adults to LC50 for spirodiclofen-susceptible Tetranychus urticae LS-VL (two-spotted spider mite) adults; format: functional
# Tetranychus urticae [2] = experiment: Insecticidal activity against spirodiclofen-susceptible Tetranychus urticae LS-VL (two-spotted spider mite) adults in kidney bean leaf disks assessed as mortality after 2 day; format: functional; conditions: foliar, 48 h
# Tetranychus urticae [3] = experiment: Insecticidal activity against spirodiclofen-resistant Tetranychus urticae SR-VP (two-spotted spider mite) adults in kidney bean leaf disks assessed as mortality measured after 2 days; format: functional; conditions: foliar, 48 h
# Tetranychus urticae [4] = experiment: Insecticidal activity against spirodiclofen-resistant Tetranychus urticae SR-VP (two-spotted spider mite) eggs in kidney bean leaf disks assessed as mortality measured after 1 day; format: functional
# Tetranychus urticae [5] = experiment: Synergism factor, ratio of LC50 for Tetranychus urticae LS-VL (two-spotted spider mite) larvae to LC50 for Tetranychus urticae LS-VL larvae in presence of 200 mg/L GSH depleter, DEM; format: functional
# Tetranychus urticae [6] = experiment: Insecticidal activity against Tetranychus urticae SR-VP (two-spotted spider mite) larvae reared under continuous pressure of 5000 mg/L spirodiclofen for 5 months assessed as mortality treated 3-4 hr after 200 mg/L GSH depleter, DEM application measured after 1 day; format: functional
# Tetranychus urticae [7] = experiment: (§1) Resistance ratio of LC50 for Tetranychus urticae SR-VP (two-spotted spider mite) larvae reared under continuous pressure of 5000 mg/L spirodiclofen for 5 months in presence of 200 mg/L GSH depleter, DEM to LC50 for Tetranychus urticae LS-VL (two-spotted spider mite) larvae in presence of 200 mg/L GSH depleter, DEM; format: functional
# Tetranychus urticae [8] = experiment: Synergism factor, ratio of LC50 for Tetranychus urticae SR-VP (two-spotted spider mite) larvae to LC50 for Tetranychus urticae SR-VP larvae in presence of 200 mg/L GSH depleter, DEM; format: functional
# Tetranychus urticae [9] = experiment: Insecticidal activity against Tetranychus urticae LS-VL (two-spotted spider mite) larvae […] assessed as mortality treated 3-4 hr after 200 mg/L GSH depleter, DEM application measured after 1 day; format: functional
# Tetranychus urticae [10] = experiment: Resistance ratio of LC50 for spirodiclofen-resistant Tetranychus urticae SR-VP (two-spotted spider mite) larvae to LC50 for spirodiclofen-susceptible Tetranychus urticae LS-VL (two-spotted spider mite) larvae; format: functional
# Tetranychus urticae [11] = experiment: Insecticidal activity against spirodiclofen-resistant Tetranychus urticae SR-VP (two-spotted spider mite) larvae in kidney bean leaf disks assessed as mortality measured after 1 day; format: functional; conditions: foliar, 24 h
# Tetranychus urticae [12] = experiment: Insecticidal activity against spirodiclofen-susceptible Tetranychus urticae LS-VL (two-spotted spider mite) larvae in kidney bean leaf disks assessed as mortality after 1 day; format: functional; conditions: foliar, 24 h
# Tetranychus urticae [13] = experiment: Insecticidal activity against Tetranychus urticae LS-VL (two-spotted spider mite) larvae reared under continuous pressure of 5000 mg/L spirodiclofen for 5 months assessed as mortality treated 3-4 hr after 200 mg/L cytochrome P450 monooxygenase inhibitor, PBO application measured after 1 day
# Tetranychus urticae [14] = experiment: Insecticidal activity against Tetranychus urticae SR-VP (two-spotted spider mite) larvae reared under continuous pressure of 5000 mg/L spirodiclofen for 5 months assessed as mortality treated 3-4 hr after 200 mg/L cytochrome P450 monooxygenase inhibitor, PBO application measured after 1 day
# Tetranychus urticae [15] = experiment: Insecticidal activity against Tetranychus urticae SR-VP (two-spotted spider mite) larvae reared under continuous pressure of 5000 mg/L spirodiclofen for 5 months assessed as mortality treated 3-4 hr after 10 mg/L esterase inhibitor, DEF application measured after 1 day; format: functional
# Tetranychus urticae [16] = experiment: Insecticidal activity against Tetranychus urticae LS-VL (two-spotted spider mite) larvae […] assessed as mortality treated 3-4 hr after 10 mg/L esterase inhibitor, DEF application measured after 1 day; format: functional
# Tetranychus urticae [17] = experiment: as §1, with “10” for “200”, “esterase inhibitor, DEF” for “GSH depleter, DEM”; format: functional
# Tetranychus urticae [18] = experiment: Synergism factor, ratio of LC50 for Tetranychus urticae LS-VL (two-spotted spider mite) larvae to LC50 for Tetranychus urticae LS-VL larva in presence of 10 mg/L esterase inhibitor, DEF; format: functional
# Tetranychus urticae [19] = experiment: Synergism factor, ratio of LC50 for Tetranychus urticae SR-VP (two-spotted spider mite) larvae to LC50 for Tetranychus urticae SR-VP larva in presence of 10 mg/L esterase inhibitor, DEF; format: functional
# Tetranychus urticae [20] = experiment: Insecticidal activity against spirodiclofen-resistant Tetranychus urticae SR-VP (two-spotted spider mite) larvae maintained on bean plants sprayed with 5000 mg/L spirodiclofen assessed as mortality measured at 6 months after mite transfer onto unsprayed bean plants; format: functional
# Tetranychus urticae [21] = experiment: Insecticidal activity against spirodiclofen-resistant Tetranychus urticae SR-VP (two-spotted spider mite) larvae maintained on bean plants sprayed with 5000 mg/L spirodiclofen assessed as mortality; format: functional
# Tetranychus urticae [22] = experiment: Insecticidal activity against haploid F2 progeny generated from reciprocal cross between male Tetranychus urticae LS-VL (two-spotted spider mite) with female Tetranychus urticae SR-VP in kidney bean leaf disk assessed as mortality; format: functional; conditions: foliar
# Tetranychus urticae [23] = experiment: Insecticidal activity against diploid F1 progeny generated from reciprocal cross between male Tetranychus urticae LS-VL (two-spotted spider mite) with female Tetranychus urticae SR-VP in kidney bean leaf disk assessed as mortality; format: functional
# Tetranychus urticae [24] = experiment: Insecticidal activity against diploid F1 progeny generated from reciprocal cross between female Tetranychus urticae LS-VL (two-spotted spider mite) with male Tetranychus urticae SR-VP in kidney bean leaf disk assessed as mortality; format: functional
# Tetranychus urticae [25] = experiment: Resistance ratio of LC50 for spirodiclofen-resistant Tetranychus urticae SR-VP (two-spotted spider mite) larvae reared under continuous pressure of 5000 mg/L spirodiclofen for 5 months to LC50 for spirodiclofen-susceptible Tetranychus urticae LS-VL (two-spotted spider mite) larvae; format: functional
# Tetranychus urticae [26] = experiment: Resistance ratio of LC50 for spirodiclofen-resistant Tetranychus urticae SR-VP (two-spotted spider mite) eggs to LC50 for spirodiclofen-susceptible Tetranychus urticae LS-VL (two-spotted spider mite) eggs; format: functional
# Tetranychus urticae [27] = experiment: Insecticidal activity against spirodiclofen-susceptible Tetranychus urticae LS-VL (two-spotted spider mite) eggs in kidney bean leaf disks assessed as mortality after 1 day; format: functional; conditions: foliar, 24 h
# Tetranychus urticae [28] = experiment: Insecticidal activity against haploid F2 progeny generated from reciprocal cross between female Tetranychus urticae LS-VL (two-spotted spider mite) with male Tetranychus urticae SR-VP in kidney bean leaf disk assessed as mortality; format: functional; conditions: foliar
# Tetranychus urticae [29] = experiment: Insecticidal activity against spirodiclofen-resistant Tetranychus urticae SR-VP (two-spotted spider mite) larvae reared under continuous pressure of 5000 mg/L spirodiclofen for 5 months in kidney bean leaf disks assessed as mortality measured after 1 day; format: functional; conditions: foliar, 24 h
compound,measurement,setting,value
CC[C@H](C)[C@H]1O[C@]2(C=C[C@@H]1C)C[C@@H]1C[C@@H](C/C=C(\C)[C@@H](O[C@H]3C[C@H](OC)[C@@H](O[C@H]4C[C@H](OC)[C@@H](O)[C@H](C)O4)[C@H](C)O3)[C@@H](C)/C=C/C=C3\CO[C@@H]4[C@H](O)C(C)=C[C@@H](C(=O)O1)[C@]34O)O2.CO[C@H]1C[C@H](O[C@H]2[C@H](C)O[C@@H](O[C@@H]3/C(C)=C/C[C@@H]4C[C@@H](C[C@]5(C=C[C@H](C)[C@@H](C(C)C)O5)O4)OC(=O)[C@@H]4C=C(C)[C@@H](O)[C@H]5OC/C(=C\C=C\[C@@H]3C)[C@]54O)C[C@@H]2OC)O[C@@H](C)[C@@H]1O [ABAMECTIN],RatioLC50,Tetranychus urticae [1],1.3
same,LC50,Tetranychus urticae [2],0.4 µg/mL
same,LC50,Tetranychus urticae [3],0.52 µg/mL
CCCCCCCCCCCCC1=C(OC(C)=O)C(=O)c2ccccc2C1=O [ACEQUINOCYL],LC90,Tetranychus urticae [4],60 µg/mL
same,RatioLC50,Tetranychus urticae [1],3.8
same,LC50,Tetranychus urticae [2],7.7 µg/mL
same,LC50,Tetranychus urticae [3],29.6 µg/mL
COc1ccc(-c2ccccc2)cc1NNC(=O)OC(C)C [BIFENAZATE],RatioLC50,Tetranychus urticae [1],2
same,LC50,Tetranychus urticae [2],1.2 µg/mL
same,LC50,Tetranychus urticae [3],2.4 µg/mL
CCOC(=O)/C=C\C(=O)OCC [DIETHYL MALEATE],RatioLC50,Tetranychus urticae [5],0.7
same,LC50,Tetranychus urticae [6],1310 µg/mL
same,RatioLC50,Tetranychus urticae [7],189
same,RatioLC50,Tetranychus urticae [8],1
same,LC50,Tetranychus urticae [9],6.9 µg/mL
CCOc1cc(C(C)(C)C)ccc1C1COC(c2c(F)cccc2F)=N1 (stereo not drawn) [ETOXAZOLE],RatioLC50,Tetranychus urticae [10],0.8
same,LC50,Tetranychus urticae [11],0.61 µg/mL
same,LC50,Tetranychus urticae [12],0.76 µg/mL
CCCCOCCOCCOCc1cc2c(cc1CCC)OCO2 [PIPERONYL BUTOXIDE],LC50,Tetranychus urticae [13],3.9 µg/mL
same,LC50,Tetranychus urticae [14],380 µg/mL
CC(C)(C)c1ccc(CSc2cnn(C(C)(C)C)c(=O)c2Cl)cc1 [PYRIDABEN],RatioLC50,Tetranychus urticae [1],0.9
same,LC50,Tetranychus urticae [2],156 µg/mL
same,LC50,Tetranychus urticae [3],135 µg/mL
"CCCCSP(=O)(SCCCC)SCCCC [S,S,S,-TRIBUTYLPHOSPHOROTRITHIOATE]",LC50,Tetranychus urticae [15],402 µg/mL
same,LC50,Tetranychus urticae [16],6.3 µg/mL
same,RatioLC50,Tetranychus urticae [17],64
same,RatioLC50,Tetranychus urticae [18],0.8
same,RatioLC50,Tetranychus urticae [19],3.3
CCC(C)(C)C(=O)OC1=C(c2ccc(Cl)cc2Cl)C(=O)OC12CCCCC2 [SPIRODICLOFEN],LC50,"Tetranychus urticae [4]; Tetranychus urticae, SR-VP, foliar, 24 h",17.9 µg/mL
same,LC50,Tetranychus urticae [20],5930 µg/mL
same,LC50,Tetranychus urticae [21],10000 µg/mL
same,LC50,Tetranychus urticae [22],44 µg/mL
same,LC90,Tetranychus urticae [23],236 µg/mL
same,LC50,"Tetranychus urticae [23]; Tetranychus urticae, foliar",85 µg/mL
same,LC90,Tetranychus urticae [24],150 µg/mL
same,LC50,"Tetranychus urticae [24]; Tetranychus urticae, foliar",68 µg/mL
same,RatioLC50,Tetranychus urticae [25],277
same,RatioLC50,Tetranychus urticae [26],2
same,LC50,Tetranychus urticae [27],8.7 µg/mL
same,LC50,Tetranychus urticae [12],4.9 µg/mL
same,LC50,Tetranychus urticae [28],56 µg/mL
same,LC50,Tetranychus urticae [29],1340 µg/mL
Cc1cc(C)c(C2=C(OC(=O)CC(C)(C)C)C3(CCCC3)OC2=O)c(C)c1 [SPIROMESIFEN],RatioLC50,Tetranychus urticae [10],18
same,LC50,Tetranychus urticae [11],14.5 µg/mL
same,LC50,Tetranychus urticae [12],0.79 µg/mL
CCc1nn(C)c(C(=O)NCc2ccc(C(C)(C)C)cc2)c1Cl [TEBUFENPYRAD],RatioLC50,Tetranychus urticae [1],2.2
same,LC50,Tetranychus urticae [2],63.5 µg/mL
same,LC50,Tetranychus urticae [3],138 µg/mL

# Reference: ChEMBL document CHEMBL3046548, “Genetic and biochemical analysis of a laboratory-selected spirodiclofen-resistant strain of Tetranychus urticae Koch (Acari: Tetranychidae)” (2009)
